Data: ChEMBL document CHEMBL3352660, “Design, synthesis and pharmacological evaluation of novel polycyclic heteroarene ethers as PDE10A inhibitors: part II” (Bioorg Med Chem Lett, 2014)
The source made the active and inactive calls. The rule behind the calls is not given here.

Assays:
[1] = target: T1, cAMP and cAMP-inhibited cGMP 3',5'-cyclic phosphodiesterase 10A (Rattus norvegicus, UniProt Q9QYJ6); assay: Inhibition of rat recombinant GST-tagged PDE10A using [3H]-cAMP as substrate by scintillation proximity assay
T1 sequence (Q9QYJ6 whole entry): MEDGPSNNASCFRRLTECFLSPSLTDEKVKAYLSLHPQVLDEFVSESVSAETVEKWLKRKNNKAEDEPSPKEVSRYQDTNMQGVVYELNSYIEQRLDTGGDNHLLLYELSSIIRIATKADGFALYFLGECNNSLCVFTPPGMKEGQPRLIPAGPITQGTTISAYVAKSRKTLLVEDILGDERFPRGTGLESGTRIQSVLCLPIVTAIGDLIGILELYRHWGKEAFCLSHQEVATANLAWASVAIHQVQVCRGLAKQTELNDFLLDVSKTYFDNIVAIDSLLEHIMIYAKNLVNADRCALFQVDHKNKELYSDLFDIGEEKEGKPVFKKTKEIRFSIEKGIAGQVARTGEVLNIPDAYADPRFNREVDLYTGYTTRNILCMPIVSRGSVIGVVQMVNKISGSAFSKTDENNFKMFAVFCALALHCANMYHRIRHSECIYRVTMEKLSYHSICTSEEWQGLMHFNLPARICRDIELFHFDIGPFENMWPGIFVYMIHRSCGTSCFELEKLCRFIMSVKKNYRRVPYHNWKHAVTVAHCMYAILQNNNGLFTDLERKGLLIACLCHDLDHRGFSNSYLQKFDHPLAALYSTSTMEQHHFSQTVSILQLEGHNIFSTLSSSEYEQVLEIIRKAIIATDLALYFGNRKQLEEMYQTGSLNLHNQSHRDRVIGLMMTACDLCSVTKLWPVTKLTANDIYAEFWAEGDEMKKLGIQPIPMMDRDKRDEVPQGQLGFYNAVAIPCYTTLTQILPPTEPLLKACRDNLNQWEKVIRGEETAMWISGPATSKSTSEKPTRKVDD

[2] = target: cGMP-dependent 3',5'-cyclic phosphodiesterase (Homo sapiens) (UniProt O00408); assay: Inhibition of human recombinant PDE2A using cAMP as substrate at 1 uM after 30 mins by HTRF method
Sequence of cGMP-dependent 3',5'-cyclic phosphodiesterase (Homo sapiens) (O00408 whole entry): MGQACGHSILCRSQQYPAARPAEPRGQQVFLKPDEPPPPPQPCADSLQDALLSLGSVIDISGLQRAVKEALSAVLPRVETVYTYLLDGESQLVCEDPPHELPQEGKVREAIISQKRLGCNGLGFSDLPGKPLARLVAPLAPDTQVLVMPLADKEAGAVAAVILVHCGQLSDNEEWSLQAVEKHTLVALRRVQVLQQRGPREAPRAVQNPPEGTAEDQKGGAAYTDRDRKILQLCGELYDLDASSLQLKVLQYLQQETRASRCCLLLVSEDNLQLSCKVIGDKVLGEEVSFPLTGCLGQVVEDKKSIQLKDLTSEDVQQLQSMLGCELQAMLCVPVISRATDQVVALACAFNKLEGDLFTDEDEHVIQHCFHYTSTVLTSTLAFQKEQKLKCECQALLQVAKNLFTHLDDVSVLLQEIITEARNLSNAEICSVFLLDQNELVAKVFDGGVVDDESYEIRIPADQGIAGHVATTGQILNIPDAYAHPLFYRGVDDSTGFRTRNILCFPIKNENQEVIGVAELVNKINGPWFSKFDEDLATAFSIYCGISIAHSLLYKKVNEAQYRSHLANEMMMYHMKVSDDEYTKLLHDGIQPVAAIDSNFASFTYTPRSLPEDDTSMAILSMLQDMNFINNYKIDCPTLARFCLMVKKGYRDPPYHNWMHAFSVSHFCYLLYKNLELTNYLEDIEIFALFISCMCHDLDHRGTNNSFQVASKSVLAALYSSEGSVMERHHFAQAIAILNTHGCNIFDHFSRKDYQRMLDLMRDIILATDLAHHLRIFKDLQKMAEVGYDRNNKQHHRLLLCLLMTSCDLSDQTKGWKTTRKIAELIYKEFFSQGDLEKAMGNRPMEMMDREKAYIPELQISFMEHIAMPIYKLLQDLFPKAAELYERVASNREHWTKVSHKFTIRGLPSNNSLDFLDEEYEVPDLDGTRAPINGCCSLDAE

[3] = target: cGMP-inhibited 3',5'-cyclic phosphodiesterase 3A (Homo sapiens) (UniProt Q14432); assay: Inhibition of human recombinant PDE3A using cAMP as substrate at 1 uM after 30 mins by HTRF method
Sequence of cGMP-inhibited 3',5'-cyclic phosphodiesterase 3A (Homo sapiens) (Q14432 whole entry): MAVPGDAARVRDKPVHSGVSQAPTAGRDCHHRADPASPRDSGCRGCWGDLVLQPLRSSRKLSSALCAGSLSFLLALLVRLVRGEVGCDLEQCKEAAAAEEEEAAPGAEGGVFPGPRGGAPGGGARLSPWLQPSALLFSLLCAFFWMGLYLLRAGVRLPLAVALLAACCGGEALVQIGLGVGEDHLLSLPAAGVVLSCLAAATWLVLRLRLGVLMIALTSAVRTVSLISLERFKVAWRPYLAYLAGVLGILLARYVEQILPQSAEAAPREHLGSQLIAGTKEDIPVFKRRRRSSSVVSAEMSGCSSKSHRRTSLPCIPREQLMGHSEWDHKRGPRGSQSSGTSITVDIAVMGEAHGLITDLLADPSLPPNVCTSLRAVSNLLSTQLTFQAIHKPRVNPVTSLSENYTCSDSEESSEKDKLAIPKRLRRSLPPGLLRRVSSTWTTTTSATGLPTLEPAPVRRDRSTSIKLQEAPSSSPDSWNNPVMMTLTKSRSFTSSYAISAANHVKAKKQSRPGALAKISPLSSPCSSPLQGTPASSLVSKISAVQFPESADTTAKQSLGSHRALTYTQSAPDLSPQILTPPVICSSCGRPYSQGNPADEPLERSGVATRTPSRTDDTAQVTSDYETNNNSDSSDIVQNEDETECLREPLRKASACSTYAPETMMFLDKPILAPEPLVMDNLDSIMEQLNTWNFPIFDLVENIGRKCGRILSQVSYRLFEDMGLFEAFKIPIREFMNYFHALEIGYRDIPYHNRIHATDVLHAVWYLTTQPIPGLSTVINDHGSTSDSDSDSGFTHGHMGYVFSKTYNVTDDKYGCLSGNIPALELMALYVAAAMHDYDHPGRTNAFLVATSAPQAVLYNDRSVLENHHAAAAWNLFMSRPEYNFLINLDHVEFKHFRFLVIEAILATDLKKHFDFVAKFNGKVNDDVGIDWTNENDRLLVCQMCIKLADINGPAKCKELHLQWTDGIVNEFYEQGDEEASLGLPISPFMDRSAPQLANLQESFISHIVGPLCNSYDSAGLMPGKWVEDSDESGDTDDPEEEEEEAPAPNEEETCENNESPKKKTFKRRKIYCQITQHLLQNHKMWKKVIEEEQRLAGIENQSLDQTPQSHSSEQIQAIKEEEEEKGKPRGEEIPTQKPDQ

[4] = target: cGMP-specific 3',5'-cyclic phosphodiesterase (Homo sapiens) (UniProt O76074); assay: Inhibition of human recombinant PDE5A using […] as substrate at 10 uM after 30 mins by scintillation proximity assay
[5] = target: High affinity 3',5'-cyclic-AMP phosphodiesterase 7A (Homo sapiens) (UniProt Q13946); assay: Inhibition of human recombinant PDE7A using [3H]-cAMP as substrate at 10 uM after 30 mins by two-step radiometric assay
Sequence of High affinity 3',5'-cyclic-AMP phosphodiesterase 7A (Homo sapiens) (Q13946 whole entry): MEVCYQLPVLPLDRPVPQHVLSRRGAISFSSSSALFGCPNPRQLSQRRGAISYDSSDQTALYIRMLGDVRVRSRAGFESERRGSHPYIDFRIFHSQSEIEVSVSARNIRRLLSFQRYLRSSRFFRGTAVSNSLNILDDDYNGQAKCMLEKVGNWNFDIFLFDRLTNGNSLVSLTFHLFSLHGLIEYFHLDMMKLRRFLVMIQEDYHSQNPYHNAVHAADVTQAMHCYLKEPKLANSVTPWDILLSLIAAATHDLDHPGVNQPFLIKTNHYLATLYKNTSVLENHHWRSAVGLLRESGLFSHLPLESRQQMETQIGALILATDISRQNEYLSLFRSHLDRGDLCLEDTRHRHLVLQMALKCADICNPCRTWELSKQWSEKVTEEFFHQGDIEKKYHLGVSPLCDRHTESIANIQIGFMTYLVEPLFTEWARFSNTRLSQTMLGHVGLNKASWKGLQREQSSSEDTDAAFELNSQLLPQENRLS

[6] = target: Dual 3',5'-cyclic-AMP and -GMP phosphodiesterase 11A (Homo sapiens) (UniProt Q9HCR9); assay: Inhibition of human recombinant PDE11A using [3H]-cAMP as substrate at 1 uM after 30 mins by two-step radiometric assay
Sequence of Dual 3',5'-cyclic-AMP and -GMP phosphodiesterase 11A (Homo sapiens) (Q9HCR9 whole entry, looked up): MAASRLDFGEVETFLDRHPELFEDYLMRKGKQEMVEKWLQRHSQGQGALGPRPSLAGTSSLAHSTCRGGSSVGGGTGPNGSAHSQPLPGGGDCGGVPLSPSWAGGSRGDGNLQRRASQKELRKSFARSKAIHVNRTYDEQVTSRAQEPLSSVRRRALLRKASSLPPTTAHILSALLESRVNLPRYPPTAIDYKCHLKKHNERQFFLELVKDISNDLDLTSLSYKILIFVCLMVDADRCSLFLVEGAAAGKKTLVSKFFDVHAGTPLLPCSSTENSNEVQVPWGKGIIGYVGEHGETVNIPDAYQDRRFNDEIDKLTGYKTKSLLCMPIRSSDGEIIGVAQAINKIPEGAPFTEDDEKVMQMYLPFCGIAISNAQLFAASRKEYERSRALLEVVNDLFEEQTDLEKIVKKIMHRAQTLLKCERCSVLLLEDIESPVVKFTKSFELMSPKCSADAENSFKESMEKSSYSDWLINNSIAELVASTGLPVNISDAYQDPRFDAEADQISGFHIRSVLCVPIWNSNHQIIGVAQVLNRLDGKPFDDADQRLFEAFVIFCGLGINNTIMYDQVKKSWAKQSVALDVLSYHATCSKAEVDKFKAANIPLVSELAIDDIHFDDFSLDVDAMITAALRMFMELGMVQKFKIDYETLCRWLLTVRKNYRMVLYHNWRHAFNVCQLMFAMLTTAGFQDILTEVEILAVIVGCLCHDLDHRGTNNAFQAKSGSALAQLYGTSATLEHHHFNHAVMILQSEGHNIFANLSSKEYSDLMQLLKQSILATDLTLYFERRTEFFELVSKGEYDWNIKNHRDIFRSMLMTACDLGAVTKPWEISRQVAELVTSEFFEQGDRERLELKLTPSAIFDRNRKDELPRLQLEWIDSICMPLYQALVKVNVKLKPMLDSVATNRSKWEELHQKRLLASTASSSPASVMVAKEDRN

[7] = target: Dual 3',5'-cyclic-AMP and -GMP phosphodiesterase 11A (Homo sapiens) (UniProt Q9HCR9); assay: Inhibition of human recombinant PDE11A using [3H]-cAMP as substrate at 10 uM after 30 mins by two-step radiometric assay
[8] = Metabolic stability in human liver microsomes incubated for 10 mins prior to NADPH addition measured after 60 mins by LC/MS/MS analysis; format: ADME; conditions: read-out: Stability
[9] = Apparent permeability of the compound by PAMPA; format: physicochemical
[10] = Cmax in Swiss albino mouse at 10 mg/kg, po; format: ADME, organism-based; set-up: dose 10 mg/kg, route oral; conditions: in vivo
[11] = Tmax in Swiss albino mouse at 10 mg/kg, po; format: ADME, organism-based; set-up: dose 10 mg/kg, route oral; conditions: in vivo
[12] = AUC (0 to t) in Swiss albino mouse at 10 mg/kg, po; format: ADME, organism-based; set-up: dose 10 mg/kg, route oral; conditions: plasma
[13] = Tmax in Sprague-Dawley rat at 10 mg/kg, po; format: ADME, organism-based; set-up: dose 10 mg/kg, route oral; conditions: in vivo
[14] = AUC (0 to t) in Sprague-Dawley rat at 10 mg/kg, po; format: ADME, organism-based; set-up: dose 10 mg/kg, route oral; conditions: plasma
[15] = Plasma clearance in iv dosed Sprague-Dawley rat; format: ADME, organism-based
Brain = assay: Free drug level in Sprague-Dawley rat brain at 10 mg/kg, po after 1 hr by LC/MS/MS analysis; format: ADME, organism-based; set-up: dose 10 mg/kg, route oral; conditions: in vivo
Rattus norvegicus [16] = assay: Antipsychotic activity in Sprague-Dawley rat psychosis model assessed as reversal of MK-801-induced locomotion at 1 mg/kg, po administered 2 hrs prior to MK-801 challenge measured every 5 mins for 1 hr starting 15 mins post MK-801 injection relative to vehicle-treated control; format: functional
Rattus norvegicus [17] = assay: Antipsychotic activity in Sprague-Dawley rat psychosis model assessed as reversal of MK-801-induced locomotion at 10 mg/kg, po administered 2 hrs prior to MK-801 challenge measured every 5 mins for 1 hr starting 15 mins post MK-801 injection relative to vehicle-treated control; format: functional
Rattus norvegicus [18] = assay: Antipsychotic activity in Sprague-Dawley rat psychosis model assessed as reversal of MK-801-induced stereotypy at 3 mg/kg, po administered 2 hrs prior to MK-801 challenge measured every 5 mins for 1 hr starting 15 mins post MK-801 injection relative to vehicle-treated control; format: functional
Rattus norvegicus [19] = assay: Antipsychotic activity in Sprague-Dawley rat psychosis model assessed as reversal of MK-801-induced ataxia at 1 mg/kg, po administered 2 hrs prior to MK-801 challenge measured every 5 mins for 1 hr starting 15 mins post MK-801 injection relative to vehicle-treated control; format: functional
Rattus norvegicus [20] = assay: Antipsychotic activity in Sprague-Dawley rat psychosis model assessed as reversal of MK-801-induced ataxia at 10 mg/kg, po administered 2 hrs prior to MK-801 challenge measured every 5 mins for 1 hr starting 15 mins post MK-801 injection relative to vehicle-treated control; format: functional
Rattus norvegicus [21] = assay: Antipsychotic activity in po dosed Sprague-Dawley rat psychosis model assessed as reversal of MK-801-induced locomotion administered 2 hrs prior to MK-801 challenge measured every 5 mins for 1 hr starting 15 mins post MK-801 injection relative to vehicle-treated control; format: functional
Rattus norvegicus [22] = assay: Antipsychotic activity in Sprague-Dawley rat conditioned avoidance response model assessed as avoidance of shock at 2.5 mg/kg, po measured after 2 hrs relative to vehicle-treated control; format: functional
Rattus norvegicus [23] = assay: Antipsychotic activity in Sprague-Dawley rat conditioned avoidance response model assessed as avoidance of shock at 10 mg/kg, po measured after 2 hrs relative to vehicle-treated control; format: functional
Rattus norvegicus [24] = assay: Antipsychotic activity in Sprague-Dawley rat conditioned avoidance response model assessed as escape at 10 mg/kg, po measured after 2 hrs relative to vehicle-treated control; format: functional, organism-based; set-up: dose 10 mg/kg
Rattus norvegicus [25] = assay: Antipsychotic activity in Sprague-Dawley rat prepulse inhibition deficit model assessed as reversal of MK-801-induced effect at 1 mg/kg, po administered 110 mins prior to MK-801 challenge relative to vehicle-treated control; format: functional; set-up: scale not given: the % may be the effect or the level left
Rattus norvegicus [26] = assay: Antipsychotic activity in po dosed Sprague-Dawley rat prepulse inhibition deficit model assessed as reversal of MK-801-induced effect administered 110 mins prior to MK-801 challenge relative to vehicle-treated control; format: functional

Cn1cc(-c2ccc(Oc3nccnc3-c3ccncc3)cc2)c2ncccc21
IC50 [1]: 16.1 nM | inhibition [2]: 3.3% | inhibition [3]: 0% | inhibition [4]: 21.6% | inhibition [5]: 44.5% | inhibition [6]: 4.9% | inhibition [7]: 11.2% | remaining at 1 h [8]: 77.4% | Papp [9]: 2.97 ×10⁻⁶ cm/s | Cmax [10]: 5490 ng/mL | Tmax [11]: 0.5 h | AUC(0-t) [12]: 31.6 µg·h/mL | Tmax [13]: 2 h | AUC(0-t) [14]: 410 µg·h/mL | clearance [15]: 1.6 mL/min/kg | Drug uptake(free) (Brain): 5 nM | Activity (Rattus norvegicus [16]): 27% | Activity (Rattus norvegicus [17]): 90% | Activity (Rattus norvegicus [18]): 96% | Activity (Rattus norvegicus [19]): 59% | Activity (Rattus norvegicus [20]): 86% | ED50 (Rattus norvegicus [21]): 1.63 mg/kg | Activity (Rattus norvegicus [22]): 64% | Activity (Rattus norvegicus [23]): 90% | Activity (Rattus norvegicus [24]): Active | Activity (Rattus norvegicus [25]): 43% | Activity (Rattus norvegicus [26]): Dose-dependent effect | ED50 (Rattus norvegicus [26]): 1.47 mg/kg
